Laboratory results taken from US11046945B2, “Labeled glutaminase proteins, isolated glutaminase protein mutants, methods of use, and kit” (CORNELL UNIVERSITY, priority 2013, dated 2021).

Target: T1, 488-GAC (WT) (Mus musculus, UniProt D3Z7P3)
T1 construct: plasmid (residues 72-603 for GAC, 72-674 for KGA); His-tag with thrombin cleavage site (N, cleaved yes); made in house; host or cells: pET23a vector
T1 sequence (D3Z7P3 72-603 isoform D3Z7P3-2): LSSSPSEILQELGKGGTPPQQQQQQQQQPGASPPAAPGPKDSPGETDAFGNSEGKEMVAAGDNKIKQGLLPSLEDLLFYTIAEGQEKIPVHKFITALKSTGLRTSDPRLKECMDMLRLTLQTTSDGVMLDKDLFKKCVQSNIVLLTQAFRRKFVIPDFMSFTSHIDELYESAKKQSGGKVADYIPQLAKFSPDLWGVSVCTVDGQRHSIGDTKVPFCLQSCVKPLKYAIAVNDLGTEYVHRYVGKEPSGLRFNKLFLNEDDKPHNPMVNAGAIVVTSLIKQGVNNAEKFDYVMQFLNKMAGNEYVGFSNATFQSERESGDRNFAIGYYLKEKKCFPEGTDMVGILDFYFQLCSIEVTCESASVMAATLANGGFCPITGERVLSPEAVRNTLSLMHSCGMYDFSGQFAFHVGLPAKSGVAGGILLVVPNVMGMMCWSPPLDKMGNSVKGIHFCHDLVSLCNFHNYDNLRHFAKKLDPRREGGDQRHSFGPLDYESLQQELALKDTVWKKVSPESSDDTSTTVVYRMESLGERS
Assay: Real-time binding read-out by 488-GAC fluorescence quenching
Conditions: for quenching of 488-GAC fluorescence (direct binding): 10 nM 488-GAC, no QSY 9-GAC
Method: Real-time fluorescence monitoring of 488-GAC fluorescence and NADH fluorescence was performed on a Varian Carry Eclipse Fluorometer, whereas small molecule inhibition and binding titrations were performed in a 96-well format using Grenier non-binding 96-well plates in a Tecan Saphire absorbance and fluorescence plate reader. Samples for monitoring real time binding of 968 to 488-GAC were prepared by adding 10 […] (490 nm excitation/520 nm emission). Similarly, this method was replicated for monitoring real time binding of 968 to KGA and mutant forms of GAC, namely 488-D391K-GAC and 488-K316E-D391K-R459E-GAC. Titrations of 968 with mutant forms of GAC were done in triplicate and quantified by the following equation
[formula] where F is the normalized fluorescence at given drug concentration (i.e., F/F0), and Fsat is the normalized fluorescence at saturating concentrations of drug, as shown in FIG. 7A. […] 10 nM WT GAC was added and allowed to equilibrate 2 minutes before beginning to monitor fluorescence of 488-GAC (490 nm excitation, 520 nm emission) and NADH fluorescence (340 nm excitation, 490 nm emission). […] The activity of GAC was indirectly measured by the NADH produced by the added glutamate dehydrogenase, which converts the product of glutaminase activity, glutamate, to α-ketoglutarate and ammonia through reducing NAD^+ to NADH. Because solutions containing glutamine undergo non-enzymatic degradation to glutamate, samples were further analyzed by subtracting the evolved NADH produced by glutaminase in the presence of 968, BPTES, or the equivalent volume of DMSO as a control, by the evolved NADH produced in the absence of glutaminase under identical experimental conditions. Evolved NADH was quantified using a standard curve of freshly prepared NADH (Sigma) in 50 mM Tris-Acetate pH=8.5, 0.1 mM EDTA.
Procedures for the described real-time binding and inhibition assays were adapted for 96-well microtiter format with minor alterations. […] Quenching was quantified by subtracting the normalized fluorescence by one (i.e., 1-F/F0). […]

Row | binding to 488-labeled GAC (WT) (20 nM 488-labeled protein, 968 titration) | Compound | quenching of 488-GAC fluorescence (direct binding)
1 | – | O=C(Cc1ccccc1)Nc1nnc(CCSCCc2nnc(NC(=O)Cc3ccccc3)s2)s1 [BPTES] | without affecting the fluorescence emission
2 | capable of binding | CN(C)c1ccc(C2Nc3ccc4ccccc4c3C3=C2C(=O)CC(C)(C)C3)cc1Br (stereo not drawn) [compound 968] | concentration dependent quenching
